According to patent US12297164B2, “Benzidine compound and application thereof” (Guangzhou IMD therapeutics Co., Ltd., priority 2019, dated 2025):
Read-outs that look alike come from different tables or passages of the source. Blank lines part the entries; values can stand above or below the compound they belong to.

Legend:
[1] = tested on: 293T (human renal epithelial cell line transfected with adenovirus E1A gene, expressing SV40 large T antigen); test: Cell-Titer GLO cell inhibition; assay type: cell-based
Experimental: (§1) Experimental materials: fluorescence signal detection instrument: EnSpire Alpha 2390 multifunctional microplate reader (produced by Perkin Elmer Company); 384-well bottom permeable microwell plate; Cell-Titer GLO luminescent reagent; cancer cells to be tested; medium and fetal bovine serum required for cell culture.
(§2) […]. After incubation with the compound for 72 to 144 hours, Cell-Titer GLO reagent 25-T was added to each well, and the plate was shaken for 20 minutes to lyse the cells. After incubation for 10 minutes, the cells were centrifuged for 1 minute, the signal value of luminescence 384 was measured. The inhibition curve was fitted by GraphPad Prism software to obtain IC50.

[2] = tested on: A549 (non-small cell lung cancer); test: Cell-Titer GLO cell inhibition; assay type: cell-based
Experimental: as §1, §2

[3] = tested on: Cos7 (African green monkey kidney cells); test: Cell-Titer GLO cell inhibition; assay type: cell-based
Experimental: as §1, §2

[4] = tested on: H1975 (lung cancer cells); test: Cell-Titer GLO cell inhibition; assay type: cell-based
Experimental: as §1, §2

[5] = tested on: HFL-1 (lung fibroblasts); test: Cell-Titer GLO cell inhibition; assay type: cell-based
Experimental: as §1, §2

[6] = tested on: HL-7702 (liver epithelial cells); test: Cell-Titer GLO cell inhibition; assay type: cell-based; details: Homo sapiens, L02
Experimental: as §1, §2

[7] = tested on: HT-29 (colon cancer); test: Cell-Titer GLO cell inhibition; assay type: cell-based
Experimental: as §1, §2

[8] = tested on: Hela (cervical cancer cells); test: Cell-Titer GLO cell inhibition; assay type: cell-based; details: Homo sapiens
Experimental: as §1, §2

[9] = tested on: Hs578T (triple negative breast cancer); test: Cell-Titer GLO cell inhibition; assay type: cell-based
Experimental: as §1, §2

[10] = tested on: MCF-7 (ER + breast cancer); test: Cell-Titer GLO cell inhibition; assay type: cell-based
Experimental: as §1, §2

[11] = tested on: MDA-MB-231 (triple negative breast cancer); test: Cell-Titer GLO cell inhibition; assay type: cell-based; details: Homo sapiens
Experimental: as §1, §2

[12] = tested on: MV-4-11 (acute leukemia); test: Cell-Titer GLO cell inhibition; assay type: cell-based
Experimental: as §1, §2

[13] = tested on: U2OS (osteosarcoma); test: Cell-Titer GLO cell inhibition; assay type: cell-based
Experimental: as §1, §2

[14] = tested on: VcaP (AR-positive prostate cancer); test: Cell-Titer GLO cell inhibition; assay type: cell-based
Experimental: as §1, §2

[15] = tested on: 22Rv1 (AR-positive prostate cancer); test: Cell-Titer GLO cell inhibition; assay type: cell-based; details: Homo sapiens
Text: (§3) The inhibition curve was fitted by GraphPad Prism software to obtain IC50.

[16] = tested on: Du145 (AR-negative prostate cancer); test: Cell-Titer GLO cell inhibition; assay type: cell-based
Text: as §3

[17] = tested on: PC-3 (AR-negative prostate cancer); test: Cell-Titer GLO cell inhibition; assay type: cell-based
Text: as §3

[18] = tested on: C4-2B (AR-positive prostate cancer); test: Cell-Titer GLO cell inhibition; assay type: cell-based; details: 72 to 144 hours
Text: as §3

[19] = biological target: T1, RORγ (Homo sapiens (Human), UniProt P51449); test: AlphaScreen inhibitory activity on RORγ protein; assay type: biochemical; details: RORγ 200 nM, bSRC1-4 50 nM
Experimental: Experimental materials: target protein RORγ with the final concentration of 200 nM; experimental buffer (10×) MOPS (500 mM) PH 7.4, CHAPS (0.5 mM), NaF (500 mM), and
The mixture was centrifuged at room temperature at 1000 rpm for 1 minute to make the system fully mixed. After being wrapped in tin foil, the mixture was incubated in the dark for 1.5 hours.
Target sequence in this assay (P51449 whole entry): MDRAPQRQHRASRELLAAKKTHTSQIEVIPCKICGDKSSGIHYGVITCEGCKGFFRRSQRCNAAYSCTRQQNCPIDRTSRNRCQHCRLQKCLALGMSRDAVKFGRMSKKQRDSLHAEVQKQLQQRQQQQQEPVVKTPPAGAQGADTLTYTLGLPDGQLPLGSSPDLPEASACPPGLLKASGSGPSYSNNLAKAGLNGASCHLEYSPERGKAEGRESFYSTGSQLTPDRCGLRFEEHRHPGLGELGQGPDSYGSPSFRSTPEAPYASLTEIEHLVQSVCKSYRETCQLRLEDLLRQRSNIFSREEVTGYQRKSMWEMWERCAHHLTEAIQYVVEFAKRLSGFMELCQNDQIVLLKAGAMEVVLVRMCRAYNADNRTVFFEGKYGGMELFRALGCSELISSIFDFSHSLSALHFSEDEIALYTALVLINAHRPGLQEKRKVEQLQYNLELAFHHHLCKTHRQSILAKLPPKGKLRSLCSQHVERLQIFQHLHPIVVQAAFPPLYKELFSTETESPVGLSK

[20] = biological target: T1, RORγ; test: Luciferase double reporter gene assay (Gal4-RORγLBD) in 293T cells; assay type: cell-based; details: 24 hours of incubation
Experimental: (§4) The cells were cultured in a 96-well plate one day before transfection, with a cell density of 1.5×10^4 cells/well. After 24 hours of adherent growth, the cells were subjected to transient transfection by using the method of double reporter gene co-transfection with the transfection reagent of Lipo-fectamine 2000, where the transfection reagent and plasmids were diluted with Opti-MEM reagent, respectively. […] Each sample had 3 duplicate wells.
Target sequence in this assay (P51449 269-508): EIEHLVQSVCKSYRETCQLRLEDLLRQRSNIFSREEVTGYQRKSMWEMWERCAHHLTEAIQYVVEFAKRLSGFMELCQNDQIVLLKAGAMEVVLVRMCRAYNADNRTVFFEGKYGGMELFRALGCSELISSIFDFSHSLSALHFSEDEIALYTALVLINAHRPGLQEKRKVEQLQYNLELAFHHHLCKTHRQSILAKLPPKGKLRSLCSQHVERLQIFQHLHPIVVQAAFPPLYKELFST

[21] = biological target: T1, RORγ; test: TSA detection (thermal shift); assay type: binding; details: protein 10 μM
Experimental: Experimental materials: hRORγ protein, fluorescent dye Sypro Orange, 10p buffer, ultrapure water, and HSP-96 well reaction plates.
Experimental method: The diluted protein (with the final concentration of 10 μM), fluorescent dye (with the final concentration of 5×), 10× TSA buffer, and double distilled water were prepared into a mixed solution with final component volumes of 1 μL, 1 μL, 1 μL, and 2 μL, receptively. The mixed solution was transferred to an HSP-96 well reaction plate, 5 μL each well. The ligand, i.e., small molecule compound, was added, 5 μL per well, with the final concentration of 200 µM. The mixture was centrifuged at room temperature at 1000 rpm for 1 minute to make the system fully mixed. The mixture was placed on an ice bath in low light for more than 30 minutes, and after that, put into RT-PCR instrument for testing. The temperature was set from 30° C. to 80° C., and the mixture was detected every time the temperature was raised by 0.5° C. and every 5 seconds.
Target sequence in this assay (P51449 whole entry): as the sequence (P51449 whole entry) above

[22] = biological target: RORα (Homo sapiens (Human), UniProt P35398); test: Specificity luciferase reporter assay in 293T cells, RORα; assay type: cell-based; details: reporter gene
Sequence of RORα (P35398 whole entry): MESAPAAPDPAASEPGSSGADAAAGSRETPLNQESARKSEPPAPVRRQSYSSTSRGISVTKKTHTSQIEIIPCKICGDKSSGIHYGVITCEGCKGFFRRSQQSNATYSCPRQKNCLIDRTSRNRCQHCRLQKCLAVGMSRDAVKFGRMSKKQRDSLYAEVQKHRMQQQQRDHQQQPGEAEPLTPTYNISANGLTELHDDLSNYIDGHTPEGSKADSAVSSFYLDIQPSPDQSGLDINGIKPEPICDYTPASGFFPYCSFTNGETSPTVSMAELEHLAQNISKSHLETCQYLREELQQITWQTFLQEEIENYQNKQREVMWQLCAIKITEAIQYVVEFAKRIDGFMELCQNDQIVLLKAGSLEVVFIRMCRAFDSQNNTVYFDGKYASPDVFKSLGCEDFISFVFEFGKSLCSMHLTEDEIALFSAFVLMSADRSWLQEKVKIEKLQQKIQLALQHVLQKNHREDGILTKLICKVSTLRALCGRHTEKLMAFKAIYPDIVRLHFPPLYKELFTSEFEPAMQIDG
Experimental: as §4, with “and” for “where”

[23] = biological target: T1, RORγ; test: ITC binding activity; details: read-out: Kd ITC, 25° C., pH 7.5
Target sequence in this assay (P51449 whole entry): as the sequence (P51449 whole entry) above

[24] = Pharmacokinetics in SD rats
Experimental: MATERIALS: Pharmacokinetic analysis was performed by Medicilon Corporation in Shanghai. Twelve Sprague and Dawley rats were provided by Super-B&K laboratory animal Corp. Ltd in Shanghai.
Experimental method: The compound was dissolved in DMSO:PEG 400:20% HP-400 (5:40:55, v:v:v) to serve as a stock solution (0.4 mg/ml, intravenous injection; 1 mg/ml, oral administration). The stock solution was administrated orally to three SD rats at a dose of 10 mg/kg, and administrated intravenously to three SD rats at a single dose of 2 mg/kg. Blood was collected from the jugular vein before oral administration and at 0.25, 0.5, 1, 2, 4, 6, 8, and 24 hours after oral administration. Blood was collected from the jugular vein before intravenous injection and at 0.083, 0.25, 0.5, 1, 2, 4, 6, 8, and 24 hours after intravenous injection. About 200 μL of blood sample was collected into a heparinized tube and immediately centrifuged at 8000 rpm for 6 minutes, and the resulting plasma was stored at −80° C. until analysis.

[25] = biological target: T1, RORγ; test: Specificity luciferase reporter assay in 293T cells, RORγ; details: read-out: IC50 RORγ, reporter gene
Target sequence in this assay (P51449 269-508): as the sequence (P51449 269-508) above
Experimental: The cells were cultured in a 96-well plate one day before transfection, with a cell density of 1.5×10^4 cells/well. After 24 hours of adherent growth, the cells were subjected to transient transfection by using the method of double reporter gene co-transfection with the transfection reagent of Lipo-fectamine 2000, and the transfection reagent and plasmids were diluted with Opti-MEM reagent, respectively. Gal4-RORγLBD was 25 ng per well; PG5-luc gene was 25 ng per well; and Renilla was 5 ng per well. After 24 hours of co-transfection, different concentrations of compounds were added. After 24 hours of incubation, Luciferase double reporter gene detection kit was used to detect luminescence signals. Each sample had 3 duplicate wells. The IC50 value (half inhibitory concentration) was calculated by software.

[26] = SD rats, intravenous injection, 2 mg/kg
[27] = Sprague-Dawley, rat, in vivo, iv, 2 mg/kg
[28] = Sprague-Dawley, rat, in vivo, po, 10 mg/kg

SMILES: CCS(=O)(=O)c1ccc(CC(=O)Nc2ccc(-c3ccc(C(O)(C(F)(F)F)C(F)(F)F)cc3F)cc2)cc1 [Example 2, 2-(4-(ethylsulfonyl)phenyl)-N-(2′-fluoro-4′-(1,1,1,3,3,3-hexafluoro-2-hydroxypropan-2-yl)-[1,1 1,1′-biphenyl]-4-yl)acetamide]
IC50 ([1]; Homo sapiens, HEK-293T): 6.22 µM | IC50 ([2]; Homo sapiens): 7.08 µM | IC50 ([3]; Chlorocebus sabaeus, COS-7): 29 µM | IC50 ([4]; Homo sapiens, NCI-H1975): 16 µM | IC50 ([5]; Homo sapiens, HFL1): ~31.9 µM | IC50 [6]: ~50 µM | IC50 ([7]; Homo sapiens): 6.07 µM | IC50 [8]: 25.1 µM | IC50 ([9]; Homo sapiens, Hs-578T): 11.9 µM | IC50 ([10]; Homo sapiens, MCF7): 10.5 µM | IC50 [11]: ~80 µM | IC50 ([12]; Homo sapiens, MV4-11): 9.48 µM | IC50 ([13]; Homo sapiens): 15.9 µM | IC50 ([14]; Homo sapiens, VCaP): 13 µM | IC50 [15]: 14.5 ± 1.1 µM | IC50 ([16]; Homo sapiens, DU-145): 11.5 µM | IC50 [17]: 15 µM

SMILES: OC(c1ccc(-c2ccc(CN3CCN(Cc4ccncc4)CC3)cc2)c(F)c1)(C(F)(F)F)C(F)(F)F [SR2211, reference compound]
inhibition rate (value in brackets) ([1]; 293T): 67% | IC50 ([1]; 293T, ~ = estimate, read-out: IC50): ~80 µM | inhibition rate (value in brackets) [2]: 55% | IC50 ([2]; ~ = estimate, read-out: IC50): ~10 µM | IC50 ([3]; Cos7, read-out: IC50): > 100 µM | inhibition rate (value in brackets) ([4]; H1975): 41% | IC50 ([4]; H1975, read-out: IC50): 30.7 µM | IC50 ([5]; HFL-1, ~ = estimate, read-out: IC50): > 50 µM | IC50 ([7]; read-out: IC50): > 50 µM | inhibition rate (value in brackets) ([9]; Hs578T): ~50% | IC50 ([9]; Hs578T, ~ = estimate, read-out: IC50): ~10 µM | inhibition rate (value in brackets) ([10]; MCF-7): 42% | IC50 ([10]; MCF-7, ~ = estimate, read-out: IC50): ~9.98 µM | IC50 ([12]; MV-4-11, read-out: IC50): 11.5 µM | inhibition rate (value in brackets) [13]: 52% | IC50 ([13]; ~ = estimate, read-out: IC50): ~10 µM | IC50 ([14]; VcaP, 72 to 144 hours, read-out: IC50): 37.6 µM | IC50 [18]: 10.1 µM | inhibition rate (value in brackets) ([16]; Du145): ~50% | IC50 ([16]; Du145, 72 to 144 hours, ~ = estimate, read-out: IC50): ~10 µM

SMILES: O=C(Cc1ccccc1[N+](=O)[O-])Nc1ccc(-c2ccc(C(O)(C(F)(F)F)C(F)(F)F)cc2F)cc1 [Example 4, N-(2′-fluoro-4′-(1,1,1,3,3,3-hexafluoro-2-hydroxypropan-2-yl)-[1,1′-biphenyl]-4-yl)-2-(2-nitrophenyl)acetamide]
IC50 [19]: 3.46 ± 1.32 µM | IC50 [20]: 0.19 µM | ΔTm [21]: 4.2 °C | inhibitory rate on RORα [22]: 37% | IC50 ([22]; NA = no inhibitory effect): 7.57 ± 0.01 µM | Kd [23]: 0.78 µM | Cl [24, 26]: 5.4445 ± 1.543 mL/min/kg | Tmax [24, 26]: 0.19 ± 0.10 h | Vz [24, 26]: 3.42 ± 0.594 L/kg | F ([24]; SD rats, oral administration 10 mg/kg vs intravenous 2 mg/kg): 19% | AUC(0-inf) [24, 27]: 6440 ± 1720 ng·h/mL | AUC(0-t) [24, 27]: 3330 ± 495 ng·h/mL | Cmax [24, 27]: 839 ± 38.1 ng/mL | half-life [24, 27]: 7.67 ± 2.36 h | AUC(0-t) [24, 28]: 3220 ± 781 ng·h/mL | Cmax [24, 28]: 721 ± 120 ng/mL | Tmax [24, 28]: 8 h | IC50 [25]: 0.19 ± 0.02 µM

IC50 [19]: 4.85 ± 0.04 µM | IC50 [20]: 1.49 µM | ΔTm [21]: 6 °C
SMILES: O=C(Cc1ccc([N+](=O)[O-])cc1)Nc1ccc(-c2ccc(C(O)(C(F)(F)F)C(F)(F)F)cc2F)cc1 [Example 3, N-(2′-fluoro-4′-(1,1,1,3,3,3-hexafluoro-2-hydroxypropan-2-yl)-[1,1′-biphenyl]-4-yl)-2-(4-nitrophenyl)acetamide]
